Data published in patent US11554110B2, “Pemafibrate dosing regimens” (Kowa Company, Ltd., priority 2017, dated 2023).

Key:
Type in all cases: in vivo, healthy adult subjects
[1] = Drug interaction study of pemafibrate with rifampicin (plasma pharmacokinetics of pemafibrate); settings: for AUC(0-inf) / Cmax: human, plasma, po, 0.4 mg, geometric mean, oral, fasting
Description: A study was conducted to investigate the effect of rifampicin on the pharmacokinetics of pemafibrate in healthy adult subjects.
Subjects were orally administered on the following schedule. The administration of 0.4 mg of pemafibrate on Days 1 and 4 was carried out under fasting for at least 8 hours, and the fasting was maintained for 4 hours after the administration. • Day 1: Pemafibrate 0.4 mg alone • Day 4: A single dose of 0.4 mg of pemafibrate plus 600 mg of rifampicin • Days 5-6: Rifampicin 600 mg alone [Measurement]
(§1) Plasma concentration of pemafibrate was measured on blood samples from patients taken prior to and at 0.25, 0.5, 1, 1.5, 2, 3, 4, 6, 8, 10, 12, 14, 16, 24, 36, 48, 72 hours after administration of the drug on Days 1 and 4.
For estimates of the Cmax of pemafibrate and the area under the concentration-time curves (AUC0-inf) up to infinity hours, the geometric mean values and the ratios of the geometric mean values for concomitant administration to those for the single administration are shown in Table 1.

[2] = Drug interaction study of pemafibrate with clarithromycin (plasma pharmacokinetics of pemafibrate); settings: for AUC(0-inf) / Cmax: human, plasma, po, 0.4 mg, geometric mean
Description: A study was conducted to investigate the effect of clarithromycin on the pharmacokinetics of pemafibrate in healthy adult subjects.
20 healthy adult subjects
Subjects were orally administered on the following schedule. The administration of 0.4 mg of pemafibrate on Days 1 and 9 was carried out under fasting for at least 8 hours, and the fasting was maintained for 4 hours after the administration. • Day 1: Pemafibrate 0.4 mg alone • Day 4 to 8: Clarithromycin 500 mg twice per day (1000 mg/day) • Day 9: Pemafibrate 0.4 mg single dose and Clarithromycin 500 mg twice per day (1000 mg/day) • Day 10 to 11: Clarithromycin 500 mg twice per day (1000 mg/day) Measurement
Plasma concentration of pemafibrate was measured on blood samples from patients collected prior to and at 0.25, 0.5, 1, 1.5, 2, 3, 4, 6, 8, 10, 12, 14, 16, 24, 36, 48, 72 hours after administration of 0.4 mg of pemafibrate on Days 1 and 9.
For estimates of the Cmax of pemafibrate and the area under the concentration-time curves (AUC0-inf) up to infinity hours, the geometric mean values and the ratios of the geometric mean values for concomitant administration to those for the single administration are shown in Table 2.

[3] = Drug interaction study of pemafibrate with cyclosporine (plasma pharmacokinetics of pemafibrate); settings: for AUC(0-inf) / Cmax: human, plasma, po, 0.4 mg, geometric mean, oral, fasting
Description: A study was conducted to investigate the effect of cyclosporine on the pharmacokinetics of pemafibrate in healthy adult subjects.
Subjects were orally administered on the following schedule. Drug administration was carried out under fasting for at least 8 hours, and fasting was maintained for 4 hours after administration. • Day 1: Pemafibrate 0.4 mg alone • Day 4: Combined single dose of 0.4 mg of pemafibrate and 600 mg of cyclosporine (Neoral® or its equivalent) [Measurement]
as §1
For estimates of the Cmax of pemafibrate and the area under the concentration-time curves (AUC0-inf) up to infinity hours, the geometric mean values and the ratios of the geometric mean values for concomitant administration to those for the single administration are shown in Table 3.

[4] = Drug interaction study of pemafibrate with clopidogrel (plasma pharmacokinetics of pemafibrate); settings: for AUC(0-inf) / Cmax: human, plasma, po; for AUC0-inf ratio (concomitant use/single use) / Cmax ratio (concomitant use/single use): ratio of geometric means
Description: A study was conducted to investigate the effect of clopidogrel on the pharmacokinetics of pemafibrate in healthy adult subjects.
Subjects were orally administered on the following schedule. Pemafibrate administration on Days 1, 4, and 7 was carried out under fasting for at least 8 hours and maintained fasting for 4 hours after administration. • Day 1: Pemafibrate 0.4 mg alone • Day 4: A single dose of 0.4 mg of pemafibrate plus 391.5 mg of clopidogrel sulfate (equivalent to 300 mg of clopidogrel) • Day 5 to 6: Clopidogrel Sulfate 91.875 mg (equivalent to Clopidogrel 75 mg) alone • Day 7: A single dose of 0.4 mg of pemafibrate and 91.875 mg of clopidogrel sulfate (equivalent to 75 mg of clopidogrel) • Day 8 to 9: Clopidogrel Sulfate 91.875 mg (equivalent to Clopidogrel 75 mg) alone Measurement
Plasma concentration of pemafibrate was measured on blood samples from patients taken prior to and at 0.25, 0.5, 1, 1.5, 2, 3, 4, 6, 8, 10, 12, 14, 16, 24, 36, 48, 72 hours after administration of the drug on Days 1, 4, and 7.
For estimates of the Cmax of pemafibrate and the area under the concentration-time curves (AUC0-inf) up to infinity hours, the geometric mean values and the ratios of the geometric mean values of the single-dose concomitant administration (Day 4) to those for the single administration (Day 1) are shown in Table 4.
For the Cmax and AUC0-inf of pemafibrate, the geometric mean values and the ratios of the geometric mean values for concomitant administration after repeated administration of clopidogrel (day 7) to those for the single administration (day 1) are shown in Table 5.

[5] = Day 1, pemafibrate 0.4 mg alone, read-out: AUC0-inf, single administration
[6] = Day 1, pemafibrate 0.4 mg alone, read-out: Cmax, single administration
[7] = ratio of geometric means, with rifampicin 600 mg vs pemafibrate alone
[8] = ratio of geometric means, with clarithromycin 1000 mg/day vs pemafibrate alone
[9] = ratio of geometric means, with cyclosporine 600 mg vs pemafibrate alone
[10] = Day 4 (clopidogrel 300 mg single dose) vs Day 1
[11] = Day 7 (after repeated clopidogrel, 75 mg) vs Day 1

CC[C@@H](Oc1cccc(CN(CCCOc2ccc(OC)cc2)c2nc3ccccc3o2)c1)C(=O)O [pemafibrate, (2R)-2-[3-({1,3-benzoxazol-2-yl[3-(4-methoxyphenoxy)propyl]amino}methyl)phenoxy]butanoic acid]
plasma concentration of pemafibrate, concomitant vs alone ([1]; concomitant administration with rifampicin compared with pemafibrate alone): increase in the plasma concentration of pemafibrate | AUC(0-inf) [1, 5]: 20.1 ng·h/mL | Cmax [1, 6]: 5.67 ng/mL | AUC(0-inf) ([1]; Day 4, single dose pemafibrate 0.4 mg plus rifampicin 600 mg, read-out: AUC0-inf, concomitant administration): 219 ng·h/mL | Cmax ([1]; Day 4, single dose pemafibrate 0.4 mg plus rifampicin 600 mg, read-out: Cmax, concomitant administration): 53.5 ng/mL | AUC0-inf ratio (concomitant use/single use) [1, 7]: 10.9009 | Cmax ratio (concomitant use/single use) [1, 7]: 9.436 | plasma concentration of pemafibrate, concomitant vs alone ([2]; concomitant administration with clarithromycin compared with pemafibrate alone): increase in the plasma concentration of pemafibrate | AUC(0-inf) ([2]; Day 1, pemafibrate 0.4 mg alone, oral, fasting, read-out: AUC0-inf, single administration): 17 ng·h/mL | Cmax ([2]; Day 1, pemafibrate 0.4 mg alone, oral, fasting, read-out: Cmax, single administration): 4.67 ng/mL | AUC(0-inf) ([2]; Day 9, pemafibrate 0.4 mg single dose with clarithromycin 500 mg twice per day (given from Day 4), read-out: AUC0-inf, concomitant administration): 35.7 ng·h/mL | Cmax ([2]; Day 9, pemafibrate 0.4 mg single dose with clarithromycin 500 mg twice per day (given from Day 4), read-out: Cmax, concomitant administration): 11.3 ng/mL | AUC0-inf ratio (concomitant use/single use) [2, 8]: 2.0975 | Cmax ratio (concomitant use/single use) [2, 8]: 2.4246 | plasma concentration of pemafibrate, concomitant vs alone ([3]; concomitant administration with cyclosporine compared with pemafibrate alone): increase in the plasma concentration of pemafibrate | AUC(0-inf) [3, 5]: 13.4 ng·h/mL | Cmax [3, 6]: 4.59 ng/mL | AUC(0-inf) ([3]; Day 4, combined single dose pemafibrate 0.4 mg and cyclosporine 600 mg, read-out: AUC0-inf, concomitant administration): 187 ng·h/mL | Cmax ([3]; Day 4, combined single dose pemafibrate 0.4 mg and cyclosporine 600 mg, read-out: Cmax, concomitant administration): 41.2 ng/mL | AUC0-inf ratio (concomitant use/single use) [3, 9]: 13.9947 | Cmax ratio (concomitant use/single use) [3, 9]: 8.9644 | plasma concentration of pemafibrate, concomitant vs alone ([4]; concomitant administration after repeated administration of clopidogrel (day 7) compared with pemafibrate alone (day 1)): increase in the plasma concentration of pemafibrate | AUC0-inf, concomitant administration ([4]; geometric mean, Day 7, pemafibrate 0.4 mg plus clopidogrel sulfate 91.875 mg (equivalent to 75 mg of clopidogrel) after repeated administration of clopidogrel): 33.5611 ng·h/mL | AUC(0-inf) ([4]; 0.4 mg, geometric mean, Day 1, pemafibrate 0.4 mg alone, oral, fasting, read-out: AUC0-inf, single administration): 16.1 ng·h/mL | Cmax ([4]; 0.4 mg, geometric mean, Day 1, pemafibrate 0.4 mg alone, oral, fasting, read-out: Cmax, single administration): 4.77 ng/mL | Cmax ([4]; 0.4 mg, geometric mean, Day 4, single dose pemafibrate 0.4 mg plus clopidogrel sulfate 391.5 mg (equivalent to 300 mg of clopidogrel), read-out: Cmax, concomitant administration): 7.08 ng/mL | AUC(0-inf) ([4]; geometric mean, Day 4, single dose pemafibrate 0.4 mg plus clopidogrel sulfate 391.5 mg (equivalent to 300 mg of clopidogrel), read-out: AUC0-inf, concomitant administration): 38.1 ng·h/mL | Cmax ([4]; geometric mean, Day 7, pemafibrate 0.4 mg plus clopidogrel sulfate 91.875 mg (equivalent to 75 mg of clopidogrel) after repeated administration of clopidogrel, read-out: Cmax, concomitant administration): 6.39 ng/mL | AUC0-inf ratio (concomitant use/single use) [4, 10]: 2.3728 | Cmax ratio (concomitant use/single use) [4, 10]: 1.4855 | AUC0-inf ratio (concomitant use/single use) [4, 11]: 2.0876 | Cmax ratio (concomitant use/single use) [4, 11]: 1.3415 | plasma concentration of pemafibrate, concomitant vs alone ([4]; single-dose concomitant administration with clopidogrel (Day 4) compared with pemafibrate alone (Day 1)): increase in the plasma concentration of pemafibrate
